Measurements as given in ChEMBL document CHEMBL1649099, “Identification of potent and selective glucosylceramide synthase inhibitors from a library of N-alkylated iminosugars” (ACS Med Chem Lett, 2011).

Key:
[1] = biological target: T1, Ceramide glucosyltransferase (Mus musculus, UniProt O88693); experiment: Inhibition of glucosylceramide synthase in mouse RAW cells preincubated with compound for 15 mins by in-situ enzyme inhibition assay; format: cell-based
T1 sequence (O88693 whole entry): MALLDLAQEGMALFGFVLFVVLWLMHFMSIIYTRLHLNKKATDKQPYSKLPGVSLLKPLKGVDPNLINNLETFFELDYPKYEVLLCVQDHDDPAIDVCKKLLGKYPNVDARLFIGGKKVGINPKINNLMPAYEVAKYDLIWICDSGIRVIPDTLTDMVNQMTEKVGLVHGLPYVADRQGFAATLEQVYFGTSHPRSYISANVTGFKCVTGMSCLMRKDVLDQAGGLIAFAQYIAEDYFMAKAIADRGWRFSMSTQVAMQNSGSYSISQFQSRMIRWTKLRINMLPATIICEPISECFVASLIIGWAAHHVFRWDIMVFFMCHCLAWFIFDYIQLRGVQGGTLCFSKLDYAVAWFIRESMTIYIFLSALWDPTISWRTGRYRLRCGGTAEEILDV

Sucrase-isomaltase = Sucrase-isomaltase (Mus musculus, UniProt B5THE3); experiment: Inhibition of sucrase in mouse intestinal […] by glucose release assay
Sucrase-isomaltase, sequence (B5THE3 whole entry): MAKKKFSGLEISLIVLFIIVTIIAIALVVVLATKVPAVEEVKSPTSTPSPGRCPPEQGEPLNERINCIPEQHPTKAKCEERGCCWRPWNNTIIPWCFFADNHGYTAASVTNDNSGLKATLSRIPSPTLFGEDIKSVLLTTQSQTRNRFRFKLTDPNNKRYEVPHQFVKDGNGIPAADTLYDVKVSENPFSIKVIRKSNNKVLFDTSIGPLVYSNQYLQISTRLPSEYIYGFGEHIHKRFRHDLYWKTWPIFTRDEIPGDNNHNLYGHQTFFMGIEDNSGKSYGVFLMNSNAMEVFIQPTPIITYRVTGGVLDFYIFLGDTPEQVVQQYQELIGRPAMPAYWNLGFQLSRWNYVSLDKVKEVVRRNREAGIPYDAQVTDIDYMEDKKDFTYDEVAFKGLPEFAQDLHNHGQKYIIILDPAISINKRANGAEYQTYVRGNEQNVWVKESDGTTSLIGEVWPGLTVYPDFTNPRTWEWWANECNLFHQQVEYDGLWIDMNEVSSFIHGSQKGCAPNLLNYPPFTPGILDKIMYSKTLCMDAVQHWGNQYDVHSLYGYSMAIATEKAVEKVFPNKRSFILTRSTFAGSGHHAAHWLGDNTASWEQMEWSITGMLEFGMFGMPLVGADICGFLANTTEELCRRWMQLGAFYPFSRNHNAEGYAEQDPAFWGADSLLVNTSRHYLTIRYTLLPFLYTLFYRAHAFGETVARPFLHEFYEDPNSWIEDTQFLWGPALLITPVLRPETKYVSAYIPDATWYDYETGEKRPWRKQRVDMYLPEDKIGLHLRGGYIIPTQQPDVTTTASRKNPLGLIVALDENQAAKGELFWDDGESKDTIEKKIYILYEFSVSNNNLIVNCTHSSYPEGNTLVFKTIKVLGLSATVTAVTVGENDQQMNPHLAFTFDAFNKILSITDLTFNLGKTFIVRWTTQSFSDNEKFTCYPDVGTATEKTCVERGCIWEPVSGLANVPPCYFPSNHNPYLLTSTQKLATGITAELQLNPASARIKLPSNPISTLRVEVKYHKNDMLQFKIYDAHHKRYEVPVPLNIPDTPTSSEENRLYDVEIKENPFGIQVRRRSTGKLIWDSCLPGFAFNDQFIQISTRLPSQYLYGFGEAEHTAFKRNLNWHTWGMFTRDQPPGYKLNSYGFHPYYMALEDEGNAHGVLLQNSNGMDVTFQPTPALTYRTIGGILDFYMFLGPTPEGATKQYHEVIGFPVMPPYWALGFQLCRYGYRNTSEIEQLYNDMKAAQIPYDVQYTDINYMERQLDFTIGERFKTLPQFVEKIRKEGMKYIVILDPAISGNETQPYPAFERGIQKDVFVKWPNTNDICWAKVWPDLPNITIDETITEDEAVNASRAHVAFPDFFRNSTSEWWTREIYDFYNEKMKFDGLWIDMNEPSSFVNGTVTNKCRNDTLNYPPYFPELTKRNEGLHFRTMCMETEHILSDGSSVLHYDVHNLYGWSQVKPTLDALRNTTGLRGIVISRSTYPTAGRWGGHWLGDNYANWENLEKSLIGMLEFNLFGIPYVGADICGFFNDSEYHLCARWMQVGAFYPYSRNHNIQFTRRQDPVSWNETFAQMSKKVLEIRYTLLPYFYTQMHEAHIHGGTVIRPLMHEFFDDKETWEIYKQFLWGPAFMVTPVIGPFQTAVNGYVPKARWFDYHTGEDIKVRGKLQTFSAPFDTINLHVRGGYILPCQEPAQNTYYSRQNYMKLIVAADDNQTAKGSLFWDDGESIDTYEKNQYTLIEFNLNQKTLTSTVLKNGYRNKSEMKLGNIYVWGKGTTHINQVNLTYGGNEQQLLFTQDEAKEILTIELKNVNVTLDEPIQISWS

Beta-glucosidase = biological target: T2, Beta-glucosidase (Homo sapiens, UniProt Q9HCG7); experiment: Inhibition of recombinant GBA2 preincubated with compound for 30 mins using 4-methylumbelliferyl-B-glucoside substrate by fluorimetric assay
T2 sequence (Q9HCG7 whole entry): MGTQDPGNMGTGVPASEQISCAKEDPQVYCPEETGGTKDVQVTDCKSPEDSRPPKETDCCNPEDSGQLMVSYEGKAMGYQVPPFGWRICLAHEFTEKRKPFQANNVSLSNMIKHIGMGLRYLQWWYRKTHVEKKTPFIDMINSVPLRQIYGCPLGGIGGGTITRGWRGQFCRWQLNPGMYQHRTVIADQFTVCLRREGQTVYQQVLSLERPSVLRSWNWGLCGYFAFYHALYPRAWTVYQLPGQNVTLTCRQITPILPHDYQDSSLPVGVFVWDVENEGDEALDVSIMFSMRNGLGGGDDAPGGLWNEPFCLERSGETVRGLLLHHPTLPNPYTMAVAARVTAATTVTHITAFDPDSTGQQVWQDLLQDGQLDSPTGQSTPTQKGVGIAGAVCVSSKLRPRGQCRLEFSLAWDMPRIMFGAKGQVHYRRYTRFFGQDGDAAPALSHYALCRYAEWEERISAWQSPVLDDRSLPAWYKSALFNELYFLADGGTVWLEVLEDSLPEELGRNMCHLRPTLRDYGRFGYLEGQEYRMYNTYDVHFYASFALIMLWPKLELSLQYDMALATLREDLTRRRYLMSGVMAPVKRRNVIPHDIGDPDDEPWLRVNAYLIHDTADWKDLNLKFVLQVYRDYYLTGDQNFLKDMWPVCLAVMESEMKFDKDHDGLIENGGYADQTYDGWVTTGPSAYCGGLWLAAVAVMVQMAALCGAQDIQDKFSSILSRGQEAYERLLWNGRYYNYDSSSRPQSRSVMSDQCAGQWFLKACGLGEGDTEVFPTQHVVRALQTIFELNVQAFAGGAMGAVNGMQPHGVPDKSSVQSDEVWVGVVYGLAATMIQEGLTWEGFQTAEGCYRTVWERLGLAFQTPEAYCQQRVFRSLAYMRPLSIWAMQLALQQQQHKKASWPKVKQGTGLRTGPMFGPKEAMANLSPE

[2] = biological target: T3, Lysosomal acid glucosylceramidase (Homo sapiens, UniProt P04062); experiment: Inhibition of recombinant GBA1 preincubated with compound for 30 mins using 4-methylumbelliferyl-B-glucoside substrate by fluorimetric assay
T3 sequence (P04062 whole entry): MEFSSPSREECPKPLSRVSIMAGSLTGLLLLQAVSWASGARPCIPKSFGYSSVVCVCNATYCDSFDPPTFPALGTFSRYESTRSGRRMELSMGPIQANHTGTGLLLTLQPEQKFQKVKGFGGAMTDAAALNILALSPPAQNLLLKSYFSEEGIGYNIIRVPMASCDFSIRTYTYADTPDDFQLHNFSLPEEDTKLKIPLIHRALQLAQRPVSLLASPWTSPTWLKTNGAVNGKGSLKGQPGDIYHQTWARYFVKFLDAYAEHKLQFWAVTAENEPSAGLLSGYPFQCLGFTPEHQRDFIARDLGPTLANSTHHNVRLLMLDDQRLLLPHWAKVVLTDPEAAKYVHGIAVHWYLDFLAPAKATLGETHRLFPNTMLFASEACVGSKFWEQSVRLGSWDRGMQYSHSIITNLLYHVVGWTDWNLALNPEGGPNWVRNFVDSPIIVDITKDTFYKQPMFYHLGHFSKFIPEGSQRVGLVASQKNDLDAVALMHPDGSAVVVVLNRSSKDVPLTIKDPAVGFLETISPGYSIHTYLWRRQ

Row | SMILES | IC50 [1] [µM] | IC50 (Sucrase-isomaltase) [µM] | IC50 (Beta-glucosidase) [µM] | IC50 [2] [µM]
1 | CCCCCN1C[C@H](O)[C@@H](O)[C@H](O)[C@H]1CO | > 20 | 2 | 0.4 | 500
2 | CCCCCCN1C[C@H](O)[C@@H](O)[C@H](O)[C@H]1CO | > 20 | 1 | 0.11 | 80
3 | CCCCCCCN1C[C@H](O)[C@@H](O)[C@H](O)[C@H]1CO | 40 |  | 0.045 | 18.5
4 | CCCCCCCCN1C[C@H](O)[C@@H](O)[C@H](O)[C@H]1CO | 4 | 0.75 | 0.02 | 4
5 | CCCCCN1C[C@H](O)[C@@H](O)[C@H](O)[C@@H]1CO | 15 | > 1000 | 0.25 | > 1000
6 | CCCCCCN1C[C@H](O)[C@@H](O)[C@H](O)[C@@H]1CO | 40 | 600 | 0.14 | > 1000
7 | CCCCCCCN1C[C@H](O)[C@@H](O)[C@H](O)[C@@H]1CO | 4 |  | 0.04 | 700
8 | CCCCCCCCN1C[C@H](O)[C@@H](O)[C@H](O)[C@@H]1CO | 4 | 60 | 0.02 | 25
9 | CCCCCCCCCN1C[C@H](O)[C@@H](O)[C@H](O)[C@@H]1CO |  | > 1000 |  | 
10 | CCCCOCCCCCN1C[C@H](O)[C@@H](O)[C@H](O)[C@H]1CO | 4 | 2 | 0.06 | 30
11 | CCCCCOCCCCCN1C[C@H](O)[C@@H](O)[C@H](O)[C@H]1CO | 2 |  | 0.04 | 705
12 | CCCCCCOCCCCCN1C[C@H](O)[C@@H](O)[C@H](O)[C@H]1CO | 1 |  | 0.008 | 
13 | CCCCCCCOCCCCCN1C[C@H](O)[C@@H](O)[C@H](O)[C@H]1CO | 0.3 | 1 | 0.015 | 1.75
14 | CCCCCCCCOCCCCCN1C[C@H](O)[C@@H](O)[C@H](O)[C@H]1CO | 0.2 | 1 | 0.01 | 0.5
15 | CCCCCCCCCOCCCCCN1C[C@H](O)[C@@H](O)[C@H](O)[C@H]1CO | 0.1 |  |  | 
16 | CCCCOCCCCCN1C[C@H](O)[C@@H](O)[C@H](O)[C@@H]1CO | 2 | > 1000 | 0.09 | > 1000
17 | CCCCCOCCCCCN1C[C@H](O)[C@@H](O)[C@H](O)[C@@H]1CO | 0.15 |  | 0.015 | 100
18 | CCCCCCOCCCCCN1C[C@H](O)[C@@H](O)[C@H](O)[C@@H]1CO | 0.1 |  | 0.025 | 
19 | CCCCCCCOCCCCCN1C[C@H](O)[C@@H](O)[C@H](O)[C@@H]1CO | 0.05 | > 1000 | 0.015 | 40
20 | CCCCCCCCOCCCCCN1C[C@H](O)[C@@H](O)[C@H](O)[C@@H]1CO | 0.05 | > 1000 | 0.015 | 15
21 | CCCCCCCCCOCCCCCN1C[C@H](O)[C@@H](O)[C@H](O)[C@@H]1CO | < 0.05 |  |  | 
22 | CCCCCCCCCN1C[C@H](O)[C@@H](O)[C@H](O)[C@H]1CO |  | 0.4 |  | 
